# Measurements taken from patent US10934310B2, “Inhibitors of Bruton's tyrosine kinase and method of their use” (JANSSEN PHARMACEUTICA NV, priority 2015, dated 2021).
# Molecular target: unphosphorylated-BTK kinase domain (UP-BTK), GST-tagged human BTK (389-659aa) (Homo sapiens (Human), UniProt Q06187)
# Test: BTK Kinase Lanthascreen Binding Assay
# Settings: compound, 50 nM Tracer 236, 2 nM anti-GST antibody, 60 minutes; pIC50 = negative log of the IC50 in molar
# Method: BTK Kinase Lanthascreen Binding Assay:
# A BTK kinase lanthascreen binding assay monitors compound binding to unphosphorylated-BTK kinase domain (UP-BTK), by competing with a fluorescent labeled tracer. […] Data were analyzed using Xlfit™ version 5.3 from ID Business Solutions (Guildford), Microsoft Excel add-in. pIC50 refers to the negative log of the IC50 in molar.
# unphosphorylated-BTK kinase domain (UP-BTK), GST-tagged human BTK (389-659aa), sequence (Q06187 389-659): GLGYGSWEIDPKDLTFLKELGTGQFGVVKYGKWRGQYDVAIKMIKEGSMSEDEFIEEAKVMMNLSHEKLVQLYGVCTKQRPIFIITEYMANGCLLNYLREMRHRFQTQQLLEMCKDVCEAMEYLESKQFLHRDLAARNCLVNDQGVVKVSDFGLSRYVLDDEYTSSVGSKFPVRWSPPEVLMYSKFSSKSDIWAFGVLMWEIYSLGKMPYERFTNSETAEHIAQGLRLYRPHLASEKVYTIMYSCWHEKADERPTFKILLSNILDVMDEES
row,SMILES,BTK_I_binding pIC50
1,"Cc1cc(Oc2ccccc2)ccc1N1C(=O)Nc2c(C(=O)N[C@H]3CCC[C@H]3N(C)C)sc3nccc1c23 [Example 51, N-((1S,2R)-2-(Dimethylamino)cyclopentyl)-5-(2-methyl-4-phenoxyphenyl)-4-oxo-4,5-dihydro-3H-1-thia-3,5,8-triazaacenaphthylene-2-carboxamide]",6.01
2,"CCC(=O)N[C@@H]1CCCC[C@H]1NC(=O)c1sc2nccc3c2c1NC(=O)N3c1ccc(Oc2ccccc2)cc1C [Example 52, 5-(2-Methyl-4-phenoxyphenyl)-4-oxo-N-((1R,2R)-2-propionamidocyclohexyl)-4,5-dihydro-3H-1-thia-3,5,8-triazaacenaphthylene-2-carboxamide]",6.01
3,"Cc1cc(Oc2ccccc2)ccc1N1C(=O)Nc2c(C(=O)N[C@H]3CCC[C@H]3N)sc3nccc1c23 [Example 53, N-((1S,2R)-2-Aminocyclopentyl)-5-(2-methyl-4-phenoxyphenyl)-4-oxo-4,5-dihydro-3H-1-thia-3,5,8-triazaacenaphthylene-2-carboxamide]",5.95
4,"Cc1cc(Oc2ccccc2)ccc1N1C(=O)Nc2c(C(=O)N[C@H]3CCCC[C@@H]3NC=O)sc3nccc1c23 [Example 54, N-((1S,2S)-2-Formamidocyclohexyl)-5-(2-methyl-4-phenoxyphenyl)-4-oxo-4,5-dihydro-3H-1-thia-3,5,8-triazaacenaphthylene-2-carboxamide]",5.90
5,"CC(=O)N[C@H]1CCCC[C@@H]1NC(=O)c1sc2nccc3c2c1NC(=O)N3c1ccc(Oc2ccccc2)cc1C [Example 55, N-((1S,2S)-2-Acetamidocyclohexyl)-5-(2-methyl-4-phenoxyphenyl)-4-oxo-4,5-dihydro-3H-1-thia-3,5,8-triazaacenaphthylene-2-carboxamide]",5.88
6,"CC(=O)N[C@@H]1CCC[C@@H]1NC(=O)c1sc2nccc3c2c1NC(=O)N3c1ccc(Oc2ccccc2)cc1C [Example 57, N-((1S,2R)-2-Acetamidocyclopentyl)-5-(2-methyl-4-phenoxyphenyl)-4-oxo-4,5-dihydro-3H-1-thia-3,5,8-triazaacenaphthylene-2-carboxamide]",5.65

# The remaining lines, values ahead:
row,BTK_I_binding pIC50,SMILES
1,5.51,"Cc1cc(Oc2ccccc2)ccc1N1C(=O)Nc2c(C(=O)N[C@H]3CCCC[C@@H]3N)sc3nccc1c23 [Example 58, N-((1S,2S)-2-Aminocyclohexyl)-5-(2-methyl-4-phenoxyphenyl)-4-oxo-4,5-dihydro-3H-1-thia-3,5,8-triazaacenaphthylene-2-carboxamide]"
2,5.46,"CCC(=O)N[C@@H]1CCC[C@@H]1NC(=O)c1sc2nccc3c2c1NC(=O)N3c1ccc(Oc2ccccc2)cc1C [Example 59, 5-(2-Methyl-4-phenoxyphenyl)-4-oxo-N-((1S,2R)-2-propionamidocyclopentyl)-4,5-dihydro-3H-1-thia-3,5,8-triazaacenaphthylene-2-carboxamide]"
3,5.40,"CCC(=O)N[C@H]1CCCC[C@@H]1NC(=O)c1sc2nccc3c2c1NC(=O)N3c1ccc(Oc2ccccc2)cc1C [Example 60, 5-(2-Methyl-4-phenoxyphenyl)-4-oxo-N-((1S,2S)-2-propionamidocyclohexyl)-4,5-dihydro-3H-1-thia-3,5,8-triazaacenaphthylene-2-carboxamide]"
4,5.29,"Cc1cc(Oc2ccccc2)ccc1N1C(=O)Nc2c(C(=O)N[C@H]3CCCC[C@@H]3N(C)C)sc3nccc1c23 [Example 62, N-((1S,2S)-2-(Dimethylamino)cyclohexyl)-5-(2-methyl-4-phenoxyphenyl)-4-oxo-4,5-dihydro-3H-1-thia-3,5,8-triazaacenaphthylene-2-carboxamide]"
5,6.85,"CNC1CCC(NC(=O)c2sc3nccc4c3c2NC(=O)N4c2ccc(Oc3ccccc3)cc2C)CC1 (centres unmarked) [Example 63, 5-(2-Methyl-4-phenoxyphenyl)-N-(4-(methylamino)cyclohexyl)-4-oxo-4,5-dihydro-3H-1-thia-3,5,8-triazaacenaphthylene-2-carboxamide]"
